Laboratory results published in patent US20230265151A1, “GIP/GLP1 CO-AGONIST COMPOUNDS” (priority 2020, published 2023).
Like-named read-outs stand apart in the source and are kept apart here. *1 amine or outer side, *2 acyl side, *3 side chain or, on linkers, in order; H or OH if unused. Where a SMILES comes first, the peptide text is derived from it. Side-chain parts run from the residue outwards. [ ]: non-standard residue; d: D form. The star is where a group is joined. αMePhe(2-F) = C[C@](N)(Cc1ccccc1F)C(=O)O; γGlu = O=C(O)[C@H](CCC(=O)[*:2])N[*:1]; C14 diacid = O=C(O)CCCCCCCCCCCCC(=O)*; αMeY = C[C@](N)(Cc1ccc(O)cc1)C(=O)O; αMeL = CC(C)C[C@](C)(N)C(=O)O; Orn = NCCC[C@H](N)C(=O)O; AEEA = NCCOCCOCC(=O)O; Aib = CC(C)(N)C(=O)O

How the values were obtained:
Format in all cases: cell-based
[1] = biological target: hGLP-1R (Homo sapiens, UniProt P43220); experiment: Functional cAMP formation (HTRF) in HEK-293 clonal cells expressing hGLP-1R, 0.1% bovine casein, without or with 1.0% human serum albumin; design: expressed in transfected cells; conditions: for Emax: percent of maximal response to GLP-1(7-36)NH2; for EC50: cAMP
Sequence of hGLP-1R (P43220 24-463): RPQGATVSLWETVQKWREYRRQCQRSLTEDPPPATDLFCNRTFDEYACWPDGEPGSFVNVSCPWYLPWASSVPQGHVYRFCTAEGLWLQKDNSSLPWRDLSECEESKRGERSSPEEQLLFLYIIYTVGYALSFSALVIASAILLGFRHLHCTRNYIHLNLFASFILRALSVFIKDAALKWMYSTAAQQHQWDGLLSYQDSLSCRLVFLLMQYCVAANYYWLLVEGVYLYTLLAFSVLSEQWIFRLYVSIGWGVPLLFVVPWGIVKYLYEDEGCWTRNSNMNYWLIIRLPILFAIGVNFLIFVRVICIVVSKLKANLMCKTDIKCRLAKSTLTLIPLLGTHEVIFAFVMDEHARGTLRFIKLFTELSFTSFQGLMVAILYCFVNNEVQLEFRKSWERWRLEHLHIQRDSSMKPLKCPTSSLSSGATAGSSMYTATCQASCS
In short: (§1)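 Cells were stimulated with peptide for 30 min at 37° C, then lysed in buffer carrying cAMP-d2 and anti-cAMP Eu3+-cryptate for a competitive HTRF read after at least 60 min at room temperature. The 665/620 nm ratio was converted to nM cAMP against a standard curve.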

[2] = biological target: T1, hGCGR (Homo sapiens, UniProt P47871); experiment: Functional cAMP formation (HTRF) in HEK-293 clonal cells expressing hGCGR, 0.1% bovine casein, without or with 1.0% human serum albumin; conditions: cAMP, 37° C.
T1 construct: expressed in transfected cells
T1 sequence (P47871 26-477): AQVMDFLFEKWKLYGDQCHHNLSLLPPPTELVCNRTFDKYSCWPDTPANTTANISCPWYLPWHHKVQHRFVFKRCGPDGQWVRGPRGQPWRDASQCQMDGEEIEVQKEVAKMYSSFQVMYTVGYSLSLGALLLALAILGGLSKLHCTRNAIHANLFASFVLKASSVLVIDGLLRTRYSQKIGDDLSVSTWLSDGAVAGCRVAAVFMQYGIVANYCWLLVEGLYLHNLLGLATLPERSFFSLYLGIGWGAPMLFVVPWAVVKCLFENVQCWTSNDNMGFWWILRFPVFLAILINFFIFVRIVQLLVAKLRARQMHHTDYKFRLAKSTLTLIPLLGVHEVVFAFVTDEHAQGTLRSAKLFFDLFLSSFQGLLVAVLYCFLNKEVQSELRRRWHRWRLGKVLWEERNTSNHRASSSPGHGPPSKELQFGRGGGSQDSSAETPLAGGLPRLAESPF
In short: as §1

[3] = biological target: T2, hGIPR (Homo sapiens, UniProt P48546); experiment: Functional cAMP formation (HTRF) in HEK-293 clonal cells expressing hGIPR, 0.1% bovine casein, without or with 1.0% human serum albumin; conditions: for Emax: percent of maximal response to GIP(1-42)NH2; for EC50: cAMP
T2 construct: expressed in transfected cells
T2 sequence (P48546 22-466): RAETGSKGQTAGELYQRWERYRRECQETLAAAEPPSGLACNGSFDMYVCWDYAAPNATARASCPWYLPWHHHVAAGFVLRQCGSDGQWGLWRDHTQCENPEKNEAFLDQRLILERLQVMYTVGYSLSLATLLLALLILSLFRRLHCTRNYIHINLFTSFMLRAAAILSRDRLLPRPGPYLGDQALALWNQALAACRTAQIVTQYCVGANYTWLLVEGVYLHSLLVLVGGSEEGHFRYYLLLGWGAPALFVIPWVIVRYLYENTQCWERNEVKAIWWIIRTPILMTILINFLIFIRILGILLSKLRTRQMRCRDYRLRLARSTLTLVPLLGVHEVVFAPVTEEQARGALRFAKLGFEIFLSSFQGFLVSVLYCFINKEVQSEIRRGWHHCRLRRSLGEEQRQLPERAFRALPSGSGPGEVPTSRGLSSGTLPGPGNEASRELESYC
In short: as §1

[4] = HEK293, cAMP, 37° C., 0.1% bovine casein, arithmetic mean, read-out: hGLP-1R Emax, % ± SEM
[5] = 37° C., 0.1% bovine casein (no human serum albumin), geometric mean, read-out: hGLP-1R EC50, nM (SEM, n)
[6] = 0.1% bovine casein (no human serum albumin), geometric mean, read-out: hGCGR EC50, nM (SEM, n)
[7] = 0.1% bovine casein and 1.0% human serum albumin, geometric mean (SEM, n), read-out: hGCGR EC50, nM (SEM, n)
[8] = HEK293, cAMP, 37° C., 0.1% bovine casein and 1.0% human serum albumin, read-out: hGIPR Emax, % ± SEM
[9] = 37° C., 0.1% bovine casein (no human serum albumin), geometric mean, read-out: hGIPR EC50, nM (SEM, n)
[10] = HEK293, read-out: hGLP-1R Emax, % ± SEM, cAMP, 37° C., 0.1% bovine casein, arithmetic mean
[11] = hGLP-1R EC50, nM (SEM, n), 37° C., 0.1% bovine casein (no human serum albumin), geometric mean
[12] = hGCGR EC50, nM (SEM, n), 0.1% bovine casein (no human serum albumin), geometric mean
[13] = hGCGR EC50, nM (SEM, n), 0.1% bovine casein and 1.0% human serum albumin, geometric mean (SEM, n)
[14] = HEK293, read-out: hGIPR Emax, % ± SEM, cAMP, 37° C., 0.1% bovine casein and 1.0% human serum albumin
[15] = HEK293, read-out: hGIPR Emax, % ± SEM, cAMP, 37° C., 0.1% bovine casein, arithmetic mean
[16] = hGIPR EC50, nM (SEM, n), 37° C., 0.1% bovine casein (no human serum albumin), geometric mean

With CC[C@H](C)[C@H](NC(=O)[C@H](CC(C)C)NC(=O)[C@](C)(Cc1ccc(O)cc1)NC(=O)[C@@H](CCC(=O)O)NC(=O)[C@@H](NC(=O)[C@H](Cc1ccccc1)NC(=O)[C@H](CCC(=O)O)NC(=O)C(C)(C)NC(=O)[C@H](CCC(N)=O)NC(=O)[C@H](C)NC(=O)[C@H](CCCCNC(=O)COCCOCCNC(=O)COCCOCCNC(=O)CCCCCCCCCCCCC(=O)O)NC(=O)[C@H](CCCN)NC(=O)[C@H](CC(=O)O)NC(=O)[C@H](CC(C)C)NC(=O)[C@](C)(CC(C)C)NC(=O)[C@@H](NC(=O)C(C)(C)NC(=O)[C@@H](NC(=O)[C@H](CC(=O)O)NC(=O)[C@H](CO)NC(=O)[C@@H](NC(=O)[C@](C)(Cc1ccccc1F)NC(=O)[C@@H](NC(=O)CNC(=O)[C@H](CCC(=O)O)NC(=O)C(C)(C)NC(=O)[C@@H](N)Cc1ccc(O)cc1)[C@@H](C)O)[C@@H](C)O)C(C)C)[C@@H](C)CC)[C@@H](C)CC)C(=O)N[C@@H](CCCCNC(=O)COCCOCCNC(=O)COCCOCCNC(=O)CCCCCCCCCCCCC(=O)O)C(=O)NCC(=O)NCC(=O)N1CCC[C@H]1C(=O)N[C@@H](CO)C(=O)N[C@@H](CO)C(=O)NCC(=O)N[C@@H](C)C(=O)N1CCC[C@H]1C(=O)N1CCC[C@H]1C(=O)N1CCC[C@H]1C(=O)N[C@@H](CO)C(N)=O [Example 389] the Emax [1, 4] was 92.4%, the EC50 [1, 5] was 0.19 nM and the EC50 [2, 6] was greater than 9950 nM. For the same compound, the EC50 [2, 7] was greater than 9950 nM, the Emax [3, 8] was 82% and the Emax ([3]; HEK293, cAMP, 37° C., 0.1% bovine casein, arithmetic mean, read-out: hGIPR Emax, % ± SEM) was 94.6%. It also gave an EC50 [3, 9] of 0.0178 nM and an EC50 ([3]; 37° C., 0.1% bovine casein and 1.0% human serum albumin, geometric mean (SEM, n), read-out: hGIPR EC50, nM (SEM, n)) of 1.5 nM.
Work on CC[C@H](C)[C@H](NC(=O)[C@H](CC(C)C)NC(=O)[C@](C)(Cc1ccc(O)cc1)NC(=O)[C@H](CCCCNC(=O)COCCOCCNC(=O)COCCOCCNC(=O)CC[C@H](NC(=O)CCCCCCCCCCCCC(=O)O)C(=O)O)NC(=O)[C@@H](NC(=O)[C@H](Cc1ccccc1)NC(=O)[C@H](CCC(=O)O)NC(=O)C(C)(C)NC(=O)[C@H](CCC(N)=O)NC(=O)[C@H](C)NC(=O)[C@H](CCC(N)=O)NC(=O)[C@H](CCCN)NC(=O)[C@H](CC(=O)O)NC(=O)[C@H](CC(C)C)NC(=O)[C@](C)(CC(C)C)NC(=O)[C@@H](NC(=O)C(C)(C)NC(=O)[C@@H](NC(=O)[C@H](CC(=O)O)NC(=O)[C@H](CO)NC(=O)[C@@H](NC(=O)[C@](C)(Cc1ccccc1F)NC(=O)[C@@H](NC(=O)CNC(=O)[C@H](CCC(=O)O)NC(=O)C(C)(C)NC(=O)[C@@H](N)Cc1ccc(O)cc1)[C@@H](C)O)[C@@H](C)O)C(C)C)[C@@H](C)CC)[C@@H](C)CC)C(=O)N[C@@H](CCCCNC(=O)COCCOCCNC(=O)COCCOCCNC(=O)CC[C@H](NC(=O)CCCCCCCCCCCCC(=O)O)C(=O)O)C(=O)NCC(=O)NCC(=O)N1CCC[C@H]1C(=O)N[C@@H](CO)C(=O)N[C@@H](CO)C(=O)NCC(=O)N[C@@H](C)C(=O)N1CCC[C@H]1C(=O)N1CCC[C@H]1C(=O)N1CCC[C@H]1C(=O)N[C@@H](CO)C(N)=O [Example 390] (H-Y[Aib]EGT[αMePhe(2-F)]TSDV[Aib]I[αMeL]LD[Orn]QAQ[Aib]EFIK([AEEA-AEEA-γGlu-C14 diacid])[αMeY]LIK([AEEA-AEEA-γGlu-C14 diacid])GGPSSGAPPPS-NH2) yielded an Emax ([1]; HEK293, cAMP, 37° C., 0.1% bovine casein and 1.0% human serum albumin, read-out: hGLP-1R Emax, % ± SEM) of 94.6%, an Emax [1, 4] of 97.7% and an EC50 [1, 5] of 0.209 nM. It also gave an EC50 ([1]; 37° C., 0.1% bovine casein and 1.0% human serum albumin, geometric mean (SEM, n), read-out: hGLP-1R EC50, nM (SEM, n)) of 24.3 nM, an EC50 [2, 6] greater than 9950 nM and an EC50 [2, 7] greater than 9950 nM. For the same compound, the Emax [3, 8] was 89.3% and the EC50 [3, 9] was 0.0187 nM.
In the case of CC[C@H](C)[C@H](NC(=O)[C@H](CC(C)C)NC(=O)[C@](C)(Cc1ccc(O)cc1)NC(=O)[C@@H](CCC(=O)O)NC(=O)[C@@H](NC(=O)[C@H](Cc1ccccc1)NC(=O)[C@H](CCCCNC(=O)COCCOCCNC(=O)COCCOCCNC(=O)CCCCCCCCCOc1ccc(C(=O)O)cc1)NC(=O)C(C)(C)NC(=O)[C@H](CCC(N)=O)NC(=O)[C@H](C)NC(=O)[C@H](CCCCNC(=O)COCCOCCNC(=O)COCCOCCNC(=O)CCCCCCCCCOc1ccc(C(=O)O)cc1)NC(=O)[C@H](CCCN)NC(=O)[C@H](CC(=O)O)NC(=O)[C@H](CC(C)C)NC(=O)[C@](C)(CC(C)C)NC(=O)[C@@H](NC(=O)C(C)(C)NC(=O)[C@H](Cc1ccncc1)NC(=O)[C@H](CC(=O)O)NC(=O)[C@H](CO)NC(=O)[C@@H](NC(=O)[C@](C)(Cc1ccccc1F)NC(=O)[C@@H](NC(=O)CNC(=O)[C@H](CCC(=O)O)NC(=O)C(C)(C)NC(=O)[C@@H](N)Cc1ccc(O)cc1)[C@@H](C)O)[C@@H](C)O)[C@@H](C)CC)[C@@H](C)CC)C(=O)N[C@@H](CCC(=O)O)C(=O)NCC(=O)NCC(=O)N1CCC[C@H]1C(=O)N[C@@H](CO)C(=O)N[C@@H](CO)C(=O)NCC(=O)N[C@@H](C)C(=O)N1CCC[C@H]1C(=O)N1CCC[C@H]1C(=O)N1CCC[C@H]1C(=O)N[C@@H](CO)C(N)=O [Example 392], the Emax [1, 10] is reported as 97.9%, the EC50 [1, 11] is reported as 0.521 nM and the EC50 [2, 12] is reported as greater than 9950 nM. The EC50 [2, 13] was greater than 9950 nM, the Emax [3, 14] was 85.7% and the Emax [3, 15] was 94.4%. For the same compound, the EC50 [3, 16] was 0.0107 nM.
Work on CC[C@H](C)[C@H](NC(=O)[C@H](CC(C)C)NC(=O)[C@](C)(Cc1ccc(O)cc1)NC(=O)[C@@H](CCC(=O)O)NC(=O)[C@@H](NC(=O)[C@H](Cc1ccccc1)NC(=O)[C@H](CCCCNC(=O)COCCOCCNC(=O)COCCOCCNC(=O)CCCCCCCCCOc1ccc(C(=O)O)cc1)NC(=O)C(C)(C)NC(=O)[C@H](CCC(N)=O)NC(=O)[C@H](C)NC(=O)[C@H](CCCCNC(=O)COCCOCCNC(=O)COCCOCCNC(=O)CCCCCCCCCOc1ccc(C(=O)O)cc1)NC(=O)[C@H](CCCN)NC(=O)[C@H](CC(=O)O)NC(=O)[C@H](CC(C)C)NC(=O)[C@](C)(CC(C)C)NC(=O)[C@@H](NC(=O)C(C)(C)NC(=O)[C@H](Cc1ccc(O)cc1)NC(=O)[C@H](CC(=O)O)NC(=O)[C@H](CO)NC(=O)[C@@H](NC(=O)[C@](C)(Cc1ccccc1F)NC(=O)[C@@H](NC(=O)CNC(=O)[C@H](CCC(=O)O)NC(=O)C(C)(C)NC(=O)[C@@H](N)Cc1ccc(O)cc1)[C@@H](C)O)[C@@H](C)O)[C@@H](C)CC)[C@@H](C)CC)C(=O)N[C@@H](CCC(=O)O)C(=O)NCC(=O)NCC(=O)N1CCC[C@H]1C(=O)N[C@@H](CO)C(=O)N[C@@H](CO)C(=O)NCC(=O)N[C@@H](C)C(=O)N1CCC[C@H]1C(=O)N1CCC[C@H]1C(=O)N1CCC[C@H]1C(=O)N[C@@H](CO)C(N)=O [Example 393] yielded an Emax [1, 10] of 96.8%, an EC50 [1, 11] of 0.372 nM and an EC50 ([1]; hGLP-1R EC50, nM (SEM, n), 37° C., 0.1% bovine casein and 1.0% human serum albumin, geometric mean (SEM, n)) of 9.18 nM. It also gave an EC50 [2, 12] greater than 9950 nM, an EC50 [2, 13] greater than 9950 nM and an Emax [3, 14] of 66.7%. The Emax [3, 15] was 94.3% and the EC50 [3, 16] was 0.0115 nM.
